This is an account of results in patent publication US5393775A, “Benzopyran compounds” (Adir et Compagnie, priority 1992, dated 1995).

Each structure is given as a SMILES string.

Assay [1] concerns lipoxygenase of human polynuclear cells (LTB4). Put plainly: inhibition of the synthesis of LTB4 (lipoxygenase) in human polynuclear cells activated by A23187. The class given is cell-based. The conditions noted are these: for inhibition at 10 µM: at 10^-5 M; for IC50: read-out: INHIBITION OF THE SYNTHESIS OF LTB4, CON[…] BY 50% (IC50 in M), read-out: INHIBITION OF THE SYNTHESIS OF LTB4, CONCENTRATION INHIBITING SYNTHESIS BY 50% (IC50 in M). Here is the method: The inhibitory activity of the compounds of formula (I) used according to the invention on the synthesis of eicosanoids is measured on washed human polynuclear cells, in the presence or in the absence of the compound to be tested, after activation of these cells by calcium (calcium ionophore A23187).
The production of the main eicosanoid, resulting from lipoxygenase, produced by human polynuclear cells: leukotriene B4 (LTB4), is measured by a radioimmunological test.

The test system of assay [2] is rat brain homogenates (peroxidation induced by the Fe^2+ /ascorbate system). The assay is described as follows: lipid peroxidation induced by Fe^2+/ascorbate on rat brain homogenates. The class given is biochemical. The following applies: at 10^-5 M, 60 minutes at 37° C. The procedure: (§1) The action of the compounds of the invention, which are capable of trapping .OH radicals, was studied, on the one hand, on the spontaneous peroxidation of lipids and, on the other hand, on the peroxidation induced by the Fe^2+ /ascorbate (10 μm/250 μm) system on rat brain homogenates.
(§2) During the measurement of the spontaneous lipid peroxidation, the rat brain homogenates are placed in the presence or in the absence of the compounds to be tested for 60 minutes at 37° C. The reaction is halted at 0° C. and the quantitative determination of malondialdehyde is carried out using thiobarbituric acid by the method of Yagi, K., (1976), Biochem. Med., 15, 212-216. Lipid peroxidation is determined by the substances reacting with thiobarbituric acid expressed in nanomoles of malondialdehyde.
During the measurement of the induced lipid peroxidation, the methodology is identical to the above with the exception of the addition to the homogenate of the radical inductive system: Fe^2+ /ascorbate. The reference substances are probucol and vitamin E.
(§3) The concentrations of the tested compounds which inhibit by 50 % the peroxidation of the substrate or the antioxidizing activity of the compounds of the invention at a concentration of 10^-5 M are calculated.

In assay [3] the test system is rat brain homogenates (spontaneous peroxidation of lipids). The assay is described as follows: spontaneous lipid peroxidation on rat brain homogenates. The class given is biochemical. The conditions noted are these: at 10^-5 M, 60 minutes at 37° C. Here is the method: as §1, §2, §3

For the compound `Cc1c(C)c2c(c(C)c1O)CCC(C)(C(=S)N1CCN(c3ccccn3)CC1)O2` (stereo not drawn) [Example 86, 1-[(3,4-dihydro-6-hydroxy-2,5,7,8-tetramethyl-2H-1-benzopyran-2-yl)thiocarbonyl]-4-(2-pyridyl)piperazine], in assay [1], the inhibition (as a rule, how much of the control response was suppressed) at 10 µM was > 99% and the IC50 amounted to 200 nM.
Consider `Cc1c(C)c2c(c(C)c1O)CCC(C)(C(=S)N1CCN(c3ccc(Cl)cc3)CC1)O2` (stereo not drawn) [Example 92, 1-[(3,4-dihydro-6-hydroxy-2,5,7,8-tetramethyl-2H-1-benzopyran-2-yl)thiocarbonyl]-4-(4-chlorophenyl)piperazine], for which, in assay [1], the inhibition at 10 µM was > 99% and the IC50 was 200 nM.
As to `Cc1c(C)c2c(c(C)c1O)CCC(C)(C(=S)N1CCN(c3ccccc3)CC1)O2` (stereo not drawn) [Example 84, 1-[(3,4-dihydro-6-hydroxy-2,5,7,8-tetramethyl-2H-1-benzopyran-2-yl)thiocarbonyl]-4-phenylpiperezine], in assay [1], the inhibition at 10 µM is > 99% and the IC50 came to 300 nM.
The matching figures for `Cc1c(C)c2c(c(C)c1O)CCC(C)(C(=S)N1CCN(C(O)(c3ccccc3)c3ccccc3)CC1)O2` (stereo not drawn) [Example 98, 1-[(3,4-dihydro-6-hydroxy-2,5,7,8-tetramethyl-2H-1-benzopyran-2-yl)thiocarbonyl]-4-(1-hydroxy-1,1-diphenylmethyl)piperazine]: > 99% and 1300 nM.
`Cc1cccc(C)c1NC(=S)C1(C)CCc2c(C)c(O)c(C)c(C)c2O1` (stereo not drawn) [Example 26, N-(2,6-dimethylphenyl)-6-hydroxy-3,4-dihydro-2,5,7,8-tetramethyl-2H-1-benzopyran-2-thiocarboxamide]: the “INHIBITION OF THE PEROXIDATION WITH RESPECT TO THE CONTROL, INDUCED PEROXIDATION” value in assay [2] is listed as 100. In assay [1], the inhibition at 10 µM is > 99% and the IC50 was 500 nM. For the same compound, in assay [3], the “INHIBITION OF THE PEROXIDATION WITH RESPECT TO THE CONTROL, SPONTANEOUS PEROXIDATION” value turned out to be 99.
Consider `COc1ccc(CN2CCN(C(=S)C3(C)CCc4c(C)c(O)c(C)c(C)c4O3)CC2)c(OC)c1OC` (stereo not drawn) [Example 94, 1-[(3,4-dihydro-6-hydroxy-2,5,7,8-tetramethyl-2H-1-benzopyran-2-yl)thiocarbonyl]-4-(2,3,4-trimethoxybenzyl)piperazine], for which, in assay [1], the inhibition at 10 µM is > 99% and the IC50 is 300 nM.
The matching figures for `Cc1c(C)c2c(c(C)c1O)CCC(C)(C(=S)N1CCN(c3ccc(F)cc3)CC1)O2` (stereo not drawn) [Example 88, 1-[(3,4-dihydro-6-hydroxy-2,5,7,8-tetramethyl-2H-1-benzopyran-2-yl)thiocarbonyl]-4-(4-fluorophenyl)piperazine]: > 99% and 100 nM.
The matching figures for `Cc1cc(C)nc(NC(=S)C2(C)CCc3c(C)c(O)c(C)c(C)c3O2)c1` (stereo not drawn) [Example 6, N-(4,6-dimethylpyrid-2-yl)-6-hydroxy-3,4-dihydro-2,5,7,8-tetramethyl-2H-1-benzopyran-2-thiocarboxamide]: > 99% and 600 nM.
As to `Cc1c(C)c2c(c(C)c1O)CCC(C)(C(=S)Nc1ccccc1)O2` (stereo not drawn) [Example 2, N-phenyl-6-hydroxy-3,4-dihydro-2,5,7,8-tetramethyl-2H-1-benzopyran-2-thiocarboxamide], in assay [2], the “INHIBITION OF THE PEROXIDATION WITH RESPECT TO THE CONTROL, INDUCED PEROXIDATION” value worked out at 100. For the same compound, in assay [1], the inhibition at 10 µM is > 99% and the IC50 was 300 nM. Besides, the “INHIBITION OF THE PEROXIDATION WITH RESPECT TO THE CONTROL, SPONTANEOUS PEROXIDATION” value in assay [3] amounted to 100.
Regarding `Cc1cc(C)c(NC(=S)C2(C)CCc3c(C)c(O)c(C)c(C)c3O2)cc1C` (stereo not drawn) [Example 4, N-(2,4,5-trimethylphenyl)-6-hydroxy-3,4-dihydro-2,5,7,8-tetramethyl-2H-1-benzopyran-2-thiocarboxamide], the “INHIBITION OF THE PEROXIDATION WITH RESPECT TO THE CONTROL, INDUCED PEROXIDATION” value in assay [2] is 100. In addition, in assay [1], the inhibition at 10 µM was > 99% and the IC50 came out at 500 nM. The “INHIBITION OF THE PEROXIDATION WITH RESPECT TO THE CONTROL, SPONTANEOUS PEROXIDATION” value in assay [3] was found to be 98.
Take `COc1cc(NC(=S)C2(C)CCc3c(C)c(O)c(C)c(C)c3O2)cc(OC)c1OC` (stereo not drawn) [Example 8, N-(3,4,5-trimethoxyphenyl)-6-hydroxy-3,4-dihydro-2,5,7,8-tetramethyl-2H-1-benzopyran-2-thiocarboxamide]: the inhibition at 10 µM in assay [1] is > 99%.
